The source of these data is patent US20150344466A1 (SUMITOMO CHEMICAL COMPANY, LIMITED, priority 2013, published 2015).

What all share (assay type): in vivo
For one experiment, the system named is Aphis gossypii. Description: Soil treatment test on Aphis gossypii on cucumber (Test Example 9). Conditions: 168 h, 5 ml treatment solution in contact with soil, seven days after putting insects, read-out: controlling value. As to the method:
On the other hand, cucumber was planted in a polyethylene cup with a plurality of small holes on the bottom and grown until the first true leaf was spread. A cup in which cucumber was planted was put in a plastic cup with 5 ml of the test treatment solution, so that the soil in the cup was in contact with the treatment liquid. After five days, about 20Aphis gossypii were allowed to parasitize the cucumber, and seven days after putting insects, the number of Aphis gossypii was investigated, and the controlling value was calculated according to the following equation. Controlling value (%)={1−(Cb×Tai)/([…])}×100 In the equation, the symbols represent as follows. Cb: the number of insects in a non-treated section before treatment Cai: the number of insects in a non-treated section on observation Tb: the number of insects in a treated section before treatment Tai: the number of insects in a treated section on observation

For experiment [1], the system named is Musca domestica. Description: Filter paper/sucrose bait death rate test on Musca domestica (Test Example 5). Conditions: female imagoes of Musca domestica, 0.7 ml on filter paper, after 24 hours. The gist of the method: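 Ten female imagoes were confined in a sealed cup over a filter paper treated with 0.7 ml of test solution and 30 mg sucrose bait. Mortality was scored at 24 h and expressed as percent of tested insects killed.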

Another experiment relates to Culex pipiens pallens. Description: Knockdown spray test on adult Culex pipiens pallens (Test Example 4). Conditions: topical, 0.25 h, active ingredient 0.1% w/v, 0.5 ml sprayed, within 15 minutes, read-out: knockdown rate of the test insects within 15 minutes. The method, boiled down: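 Knockdown counts were taken 2, 5 and 15 min after spraying and expressed as percent of the 10 adults tested. For the spray, 0.5 ml of solution was applied by spray gun (0.4 kg/cm^2) from 30 cm above a gauze-covered cup in a test chamber; the cup was taken out right after spraying.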

Experiment [2] concerns Musca domestica. Description: Knockdown spray test on adult Musca domestica (Test Example 3). Conditions: topical, 0.25 h, active ingredient 2.0% w/v, 0.5 ml sprayed, within 15 minutes, read-out: knockdown rate of the test insects within 15 minutes. The method, boiled down:
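Ten adult house flies (5 male, 5 female) in a gauze-covered cup sprayed with 0.5 ml test solution from 30 cm at 0.9 kg/cm^2 inside a chamber, then removed. Knocked-down flies counted at 2, 5 and 15 min and expressed as % of insects tested.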

The subject of experiment [3] is Blattella germanica. Description: Knockdown spray test on Blattella germanica, 2.0% w/v oil formulation (Test Example 1). Conditions: topical, 0.25 h, active ingredient 2.0% w/v, 1.5 ml sprayed, within 15 minutes, read-out: knockdown rate of the test insects within 15 minutes. The gist of the method:
(§1)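 Ten German cockroaches (5 males, 5 females) in a mesh-bottomed, butter-walled container were sprayed with 1.5 ml test solution from 60 cm at 0.42 kg/cm^2 inside a chamber.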

Experiment [4] concerns Blattella germanica. Description: Knockdown spray test on Blattella germanica, 0.1% w/v oil formulation (Test Example 2). Conditions: topical, 0.25 h, active ingredient 0.1% w/v, 1.5 ml sprayed, within 15 minutes, read-out: knockdown rate of the test insects within 15 minutes. The gist of the method: as §1

Where only a bound is given, the exact number is not on record here.

`O=C(NCC1CCOC1)c1cn(Cc2ccccc2)nn1` (stereo not drawn) [(9)]: the pest or weed control at 500 ppm in the experiment with Aphis gossypii and in the experiment on Musca domestica [1] was not below 90% each time.
For the compound `O=C(NCCC1CCOCC1)c1cc(COCc2ccccc2)on1` [(18), N-[2-(tetrahydropyran-4-yl)ethyl]-5-benzyloxymethylisoxazole-3-carboxamide], in the experiment on Culex pipiens pallens, the pest or weed control at 0.1 % strength is not below 80%. Also, in the experiment with Aphis gossypii, the pest or weed control at 500 ppm is not below 90%.
Regarding `O=C(NCCC1CCOC1)c1cc(COCc2ccccc2)on1` (stereo not drawn) [(30), N-[2-(tetrahydrofuran-3-yl)ethyl]-5-benzyloxymethylisoxazole-3-carboxamide], the pest or weed control at 2 % strength in the experiment with Musca domestica [2] and in the experiment with Blattella germanica [3] was not below 80% each time. For the same compound, the pest or weed control at 0.1 % strength in the experiment with Culex pipiens pallens was not below 80%. Further, the pest or weed control at 500 ppm in the experiment on Aphis gossypii was not below 90%.
For the compound `O=C(NCC1COCCO1)c1cc(COCc2ccccc2)on1` (stereo not drawn) [(31)], the pest or weed control at 2 % strength in the experiment on Blattella germanica [3] was not below 80%. Moreover, in the experiment on Culex pipiens pallens, the pest or weed control at 0.1 % strength was not below 80%. Moreover, the pest or weed control at 500 ppm with Aphis gossypii is not below 90%.
For `O=C(NC[C@H]1CCOC1)c1cc(COCc2ccccc2)on1` [(33), N—[(R)-tetrahydrofuran-3-ylmethyl]-5-benzyloxymethylisoxazole-3-carboxamide], the pest or weed control at 2 % strength in the experiment with Musca domestica [2] and in the experiment on Blattella germanica [3] was not below 80% in each case. Also, the pest or weed control at 0.1 % strength in the experiment with Culex pipiens pallens is not below 80%. Besides, the pest or weed control at 500 ppm with Aphis gossypii was not below 90%.
On to `O=C(NC[C@@H]1CCOC1)c1cc(COCc2ccccc2)on1` [(34), N—[(S)-tetrahydrofuran-3-ylmethyl]-5-benzyloxymethylisoxazole-3-carboxamide], for which the pest or weed control at 2 % strength in the experiment with Musca domestica [2] and with Blattella germanica [3] was not below 80% each time. For the same compound, the pest or weed control at 0.1 % strength in the experiment with Culex pipiens pallens is not below 80%. The pest or weed control at 500 ppm in the experiment on Aphis gossypii and in the experiment with Musca domestica [1] was not below 90% throughout.
For the compound `CC1(CNC(=O)c2cc(COCc3ccccc3)on2)CCOC1` (stereo not drawn) [(36), N-(3-methyltetrahydrofuran-3-ylmethyl)-5-benzyloxymethylisoxazole-3-carboxamide], the pest or weed control at 2 % strength with Musca domestica [2] and in the experiment on Blattella germanica [3] was not below 80% each time. In the experiment on Culex pipiens pallens, the pest or weed control at 0.1 % strength is not below 80%. In addition, the pest or weed control at 500 ppm in the experiment on Aphis gossypii is not below 90%.
Consider `O=C(NC1CCOCC1)c1cc(COCc2ccccc2)on1` [(43), N-(tetrahydropyran-4-yl)-5-benzyloxymethylisoxazole-3-carboxamide], for which the pest or weed control at 2 % strength in the experiment with Blattella germanica [3] is not below 80%. Also, in the experiment with Culex pipiens pallens, the pest or weed control at 0.1 % strength is not below 80%. Further, in the experiment with Aphis gossypii, the pest or weed control at 500 ppm was not below 90%.
In the case of `CCCCn1cc(C(=O)NCC2CCOC2)nn1` (stereo not drawn) [(54), N-(tetrahydrofuran-3-ylmethyl)-1-butyl-1H-1,2,3-triazole-4-carboxamide], the pest or weed control at 500 ppm in the experiment on Aphis gossypii and in the experiment on Musca domestica [1] was not below 90% each time.
Consider `O=C(NCC1CCOCC1)c1cc(COCc2ccc(F)cc2)on1` [(90), N-(tetrahydropyran-4-ylmethyl)-5-(4-fluorobenzyloxymethyl)isoxazole-3-carboxamide], for which the pest or weed control at 0.1 % strength in the experiment on Culex pipiens pallens and in the experiment on Blattella germanica [4] was not below 80% throughout. Further, the pest or weed control at 500 ppm with Aphis gossypii and with Musca domestica [1] was not below 90% each time.
On to `O=C(NCC1CCOC1)c1cc(COc2cccc(F)c2)on1` (stereo not drawn) [(194), N-(tetrahydrofuran-3-ylmethyl)-5-(3-fluorophenoxymethyl)isoxazole-3-carboxamide], for which the pest or weed control at 0.1 % strength in the experiment on Culex pipiens pallens and in the experiment with Blattella germanica [4] was not below 80% in each case. In addition, the pest or weed control at 500 ppm with Aphis gossypii was not below 90%.
In the case of `O=C(NCC1CCOC1)c1cc(COc2ccc3c(c2)OCO3)on1` (stereo not drawn) [(204), N-(tetrahydrofuran-3-ylmethyl)-5-(5-(1,3-benzodioxolanyl)oxymethyl)isoxazole-3-carboxamide], the pest or weed control at 0.1 % strength in the experiment on Culex pipiens pallens and in the experiment on Blattella germanica [4] was not below 80% throughout. In addition, the pest or weed control at 500 ppm in the experiment with Aphis gossypii is not below 90%.
